Where a name gives a salt, the structure may show the parent alone.
Molecular target: T1, hNPRA (Homo sapiens, UniProt P16066)
T1 construct: expressed in transfected cells
T1 sequence (P16066 33-1061): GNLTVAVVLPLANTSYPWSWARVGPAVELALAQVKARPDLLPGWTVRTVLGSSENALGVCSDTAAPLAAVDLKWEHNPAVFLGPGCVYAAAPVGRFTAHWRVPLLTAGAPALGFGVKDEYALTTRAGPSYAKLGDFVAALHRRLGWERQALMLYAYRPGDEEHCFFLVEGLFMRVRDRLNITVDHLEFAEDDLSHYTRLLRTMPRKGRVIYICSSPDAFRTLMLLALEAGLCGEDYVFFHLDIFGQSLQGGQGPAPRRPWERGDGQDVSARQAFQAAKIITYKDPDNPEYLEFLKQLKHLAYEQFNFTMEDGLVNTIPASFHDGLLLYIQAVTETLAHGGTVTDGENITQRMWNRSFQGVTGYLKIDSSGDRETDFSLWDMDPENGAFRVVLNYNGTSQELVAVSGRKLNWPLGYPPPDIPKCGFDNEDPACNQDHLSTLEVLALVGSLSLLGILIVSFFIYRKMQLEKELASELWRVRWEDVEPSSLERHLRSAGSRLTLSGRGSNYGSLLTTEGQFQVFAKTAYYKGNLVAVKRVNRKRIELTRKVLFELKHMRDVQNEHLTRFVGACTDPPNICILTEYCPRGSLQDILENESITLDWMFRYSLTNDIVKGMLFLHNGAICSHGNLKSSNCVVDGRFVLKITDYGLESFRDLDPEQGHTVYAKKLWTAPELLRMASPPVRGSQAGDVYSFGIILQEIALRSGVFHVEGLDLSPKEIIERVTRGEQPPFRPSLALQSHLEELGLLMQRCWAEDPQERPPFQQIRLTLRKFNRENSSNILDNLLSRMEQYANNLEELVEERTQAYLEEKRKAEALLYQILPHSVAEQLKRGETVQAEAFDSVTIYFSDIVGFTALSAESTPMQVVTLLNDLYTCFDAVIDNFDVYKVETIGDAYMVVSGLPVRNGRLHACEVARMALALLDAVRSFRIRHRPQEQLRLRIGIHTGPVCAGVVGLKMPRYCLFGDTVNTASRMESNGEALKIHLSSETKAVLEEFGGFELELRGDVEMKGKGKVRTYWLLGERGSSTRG
Assay: NPRA Functional Cell Assay (cGMP HTRF, NPRA HEK JumpIn stable cells)
Format: cell-based
Details: cGMP production, 1 hour at 37° C., 10-point dose response
Summary of the method: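 cGMP HTRF read-out after 1 hour compound treatment at 37° C. of human NPRA-expressing HEK JumpIn cells, 1500 cells/well, in buffer with phosphodiesterase inhibitors IBMX and RO20 (100 uM each). Signal converted to [cGMP] by calibration curve; EC50s fitted by 4-parameter logistic; 50 nM h-ANP as positive response.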

Compound | EC50 [nM]
CC(C)(C)[C@H]1CCc2nc3sc(C(=O)N[C@H](CCN4CCC(O)CC4)c4cccc(C(=O)NC5CCNCC5)c4)nc3cc2C1 (racemic) [Example 133, rac-(7S)-7-tert-butyl-N-[rac-(1R)-3-(4-hydroxy-1-piperidyl)-1-[3-(4-piperidylcarbamoyl)phenyl]propyl]-5,6,7,8-tetrahydrothiazolo[5,4-b]quinoline-2-carboxamide] | 117
CC(C)(C)[C@H]1CCc2nc3sc(C(=O)N[C@H](CCN4CCC(O)CC4)c4ccc(-c5cnc(=O)[nH]c5)cc4)nc3cc2C1 (racemic) [Example 127, rac-(7S)-7-tert-butyl-N-[rac-(1R)-3-(4-hydroxypiperidin-1-ium-1-yl)-1-[4-(2-oxo-1H-pyrimidin-5-yl)phenyl]propyl]-5,6,7,8-tetrahydrothiazolo [5,4-b]quinoline-2-carboxamide; 2,2,2-trifluoroacetate] | 452
CC1(C)NCCC1NC(=O)c1cccc([C@@H](CCN2CCC(O)CC2)NC(=O)c2nc3cc4c(nc3s2)CC[C@H](C(C)(C)C)C4)c1 (mixture of isomers) [Example 139, rac-(7S)-7-tert-butyl-N-[rac-(1R)-1-[3-[(2,2-dimethylpyrrolidin-3-yl)carbamoyl]phenyl]-3-(4-hydroxy-1-piperidyl)propyl]-5,6,7,8-tetrahydrothiazolo[5,4-b]quinoline-2-carboxamide] | 219
CN1CC(NC(=O)c2cccc([C@@H](CCN3CC[C@H](C(=O)O)C3)NC(=O)c3nc4cc5c(nc4s3)CC[C@H](C(C)(C)C)C5)c2)C1 (racemic) [Example 113, rac-(3S)-1-[rac-(3R)-3-[3-[(1-methylazetidin-1-ium-3-yl)carbamoyl]phenyl]-3-[[rac-(7S)-7-tert-butyl-5,6,7,8-tetrahydrothiazolo[5,4-b]quinoline-2-carbonyl]amino]propyl]pyrrolidine-3-carboxylic acid; 2,2,2-trifluoroacetate] | 939
CN(C)CC[C@@H](NC(=O)c1nc2cc3c(nc2s1)CC[C@H](C(C)(C)C)C3)c1cccc(C(=O)N[C@@H]2CNC[C@H]2O)c1 (racemic) [Example 90, rac-(7S)-7-tert-butyl-N-[rac-(1R)-3-(dimethylamino)-1-[3-[[rac-(3R,4R)-4-hydroxypyrrolidin-3-yl]carbamoyl]phenyl]propyl]-5,6,7,8-tetrahydrothiazolo[5,4-b] quinoline-2-carboxamide] | 271
CC(C)(C)[C@H]1CCc2nc3sc(C(=O)N[C@H](CCN4CCCC5(CCNC5=O)C4)c4cccc(NS(C)(=O)=O)c4)cc3cc2C1 (mixture of isomers) [Example 19, ammonium; methylsulfonyl-[3-[rac-(1R)-3-(1-oxo-2,9-diazaspiro[4.5]decan-9-y1)-1-[[rac-(6S)-6-tert-butyl-5,6,7,8-tetrahydrothieno[2,3-b]quinoline-2-carbonyl]amino]propyl]phenyl]azanide] | 1580
CC(C)(C)[C@H]1CCc2nc3sc(C(=O)N[C@H](CCN[C@H]4C[C@@H](O)[C@@H](O)C4)c4ccc(-c5ccc(=O)[nH]c5)cc4)cc3cc2C1 (racemic) [Example 39, [rac-(3R,4S)-3,4-dihydroxycyclopentyl]-[rac-(3R)-3-[4-(6-oxo-1H-pyridin-3-yl)phenyl]-3-[[rac-(6S)-6-tert-butyl-5,6,7,8-tetrahydrothieno[2,3-b]quinoline-2-carbonyl]amino]propyl] ammonium;formate] | 655
CC(C)(C)[C@H]1CCc2nc3sc(C(=O)N[C@H](CCN4CCCC(O)C4)c4cccc(NS(C)(=O)=O)c4)cc3cc2C1 (mixture of isomers) [Example 12, ammonium; methylsulfonyl-[3-[rac-(1R)-3-(3-hydroxy-1-piperidyl)-1-[[rac-(6S)-6-tert-butyl-5,6,7,8-tetrahydrothieno[2,3-b]quinoline-2-carbonyl]amino]propyl]phenyl] azanide] | 790
COC(=O)CC1CCN(CC[C@@H](NC(=O)c2nc3cc4c(nc3s2)CC[C@H](C(C)(C)C)C4)c2cccc(C(=O)NC3CN(C)C3)c2)CC1 (racemic) [Example 110, methyl 2-[1-[rac-(3R)-3-[3-{(1-methylazetidin-1-ium-3-yl)carbamoyl]phenyl]-3-[rac-(7S)-7-tert-butyl-5,6,7,8-tetrahydrothiazolo[5,4-b]quinoline-2-carbonyl]amino]propyl]-4-piperidyl]acetate; 2,2,2-trifluoroacetate] | 632
CN(C)CC[C@@H](NC(=O)c1nc2cc3c(nc2s1)CC[C@H](C(C)(C)C)C3)c1cccc(C(=O)N[C@H]2CCNC2)c1 (racemic) [Example 89, rac-(7S)-7-tert-butyl-N-[rac-(1R)-3-(dimethylamino)-1-[3-[rac-(3S)-pyrrolidin-3-yl]carbamoyl]phenyl] propyl]-5,6,7,8-tetrahydrothiazolo[5,4-b] quinoline-2-carboxamide] | 230

Results, then the compound that gave them:

EC50 [nM] | Compound
959 | Cc1n[nH]c(C)c1-c1ccc([C@@H](CCN2CCC(O)CC2)NC(=O)c2nc3cc4c(nc3s2)CC[C@H](C(C)(C)C)C4)cc1 (racemic) [Example 173, rac-(7S)-7-tert-butyl-N-[rac-(1R)-1-[4-(3,5-dimethyl-1H-pyrazol-4-yl)phenyl]-3-(4-hydroxy-1-piperidyl)propyl]-5,6,7,8-tetrahydrothiazolo[5,4-b]quinoline-2-carboxamide]
1700 | CC(C)(C)[C@H]1CCc2nc3sc(C(=O)N[C@H](CCN4CCC(O)CC4)c4ccc(-c5cc(F)c(O)c(F)c5)cc4)nc3cc2C1 (racemic) [Example 184, rac-(7S)-7-tert-butyl-N-[rac-(1R)-1-[4-(3,5-difluoro-4-hydroxy-phenyl)phenyl]-3-(4-hydroxypiperidin-1-ium-1-yl)propyl]-5,6,7,8-tetrahydrothiazolo[5,4-b]quinoline-2-carboxamide; 2,2,2-trifluoroacetate]
665 | CC(C)(C)[C@H]1CCc2nc3sc(C(=O)N[C@H](CCN4CCC(O)CC4)c4ccc(OCCO)nc4)nc3cc2C1 (racemic) [Example 192, rac-(7S)-7-tert-butyl-N-[rac-(1R)-1-[6-(2-hydroxyethoxy)-3-pyridyl]-3-(4-hydroxy-1-piperidyl)propyl]-5,6,7,8-tetrahydrothiazolo[5,4-b]quinoline-2-carboxamide]
2040 | CC(C)C1(F)CCc2nc3sc(C(=O)N[C@H](CCN4CCC(O)CC4)c4ccc(N5CCOC5=O)cc4)nc3cc2C1 (stereo partly drawn) [Example 233, 7-fluoro-N-((R)-3-(4-hydroxypiperidin-1-yl)-1-(4-(2-oxooxazolidin-3-yl)phenyl)propyl)-7-isopropyl-5,6,7,8-tetrahydrothiazolo[5,4-b]quinoline-2-carboxamide]
1380 | CC(C)(C)[C@H]1CCc2nc3sc(C(=O)N[C@H](CCN4CCC(O)CC4)c4ccc(N5CCC(O)CC5)nc4)nc3cc2C1 (racemic) [Example 189, rac-(7S)-7-tert-butyl-N-[rac-(1R)-3-(4-hydroxy-1-piperidyl)-1-[6-(4-hydroxy-1-piperidyl)-3-pyridyl]propyl]-5,6,7,8-tetrahydrothiazolo[5,4-b]quinoline-2-carboxamide]
735 | CN(CC[C@@H](NC(=O)c1nc2cc3c(nc2s1)CC[C@H](C(C)(C)C)C3)c1ccc(NS(=O)(=O)N(C)C)nc1)CC1(O)CC1 (racemic) [Example 209, (1-hydroxycyclopropyl)methyl-methyl-[rac-(3R)-3-[6-(dimethylsulfamoylamino)-3-pyridyl]-3-[[rac-(7S)-7-tert-butyl-5,6,7,8-tetrahydrothiazolo[5,4-b]quinoline-2-carbonyl]amino]propyl]ammonium; 2,2,2-trifluoroacetate]
1610 | CN(C)S(=O)(=O)Nc1ccc([C@@H](CCN2CCNC(=O)CC2)NC(=O)c2nc3cc4c(nc3s2)CC[C@H](C(C)(C)C)C4)cn1 (racemic) [Example 215, rac-(7S)-7-tert-butyl-N-[rac-(1R)-1-[6-(dimethylsulfamoylamino)-3-pyridyl]-3-(5-oxo-1,4-diazepan-1-ium-1-yl)propyl]-5,6,7,8-tetrahydrothiazolo[5,4-b]quinoline-2-carboxamide; 2,2,2-trifluoroacetate]
1290 | CC(C)(C)[C@H]1CCc2nc3sc(C(=O)N[C@H](CCN4CCC5OCCCC5C4)c4ccc(-c5cnc(O)c(F)c5)cc4)nc3cc2C1 (mixture of isomers) [Example 204, rac-(7S)-7-tert-butyl-N-[rac-(1R)-3-(3,4,4a,5,6,7,8,8a-octahydro-2H-pyrano[3,2-c]pyridin-6-ium-6-yl)-1-[4-(5-fluoro-6-hydroxy-3-pyridyl)phenyl]propyl]-5,6,7,8-tetrahydrothiazolo[5,4-b]quinoline-2-carboxamide; formate]

— US12440496B2, “Natriuretic peptide receptor a agonists useful for the treatment of cardiometabolic diseases, kidney disease and diabetes” (Merck Sharp & Dohme LLC, priority 2019, dated 2025)
